The subject of series [1] is platelets. The series is described as follows: In vivo platelet toxicity test in mice.
Description: The in vivo platelet toxicity test was performed by using 5-6 week old female C57BL/6J mice. The C57BL/6J mice were purchased from Beijing Vital River Laboratory Animal Technology Co., Ltd. and housed under specific pathogen-free (SPF) conditions, with a 12-hour light/12-hour dark cycle, and free access to food and water. […] Different doses of the molecules to be tested (e.g., 0.1, 0.5, 2.5 mg/kg or 2, 5, 20 mg/kg) were prepared in advance with the aforementioned vehicle, and administered to mice via intraperitoneal injection at a volume of 200 µL for each mouse. After administration was completed, approximately 50 µL of blood was collected from each mouse at different time points via the intra-canthus sampling method into EDTA anticoagulant tubes (RAM Scientific), then a routine analysis of blood was performed by using a hematology analyzer, and the platelets was counted.
Series [2] relates to Molt-4 cells. The experiment in a line: Detection of E3 enzyme-dependence: Molt-4 cell killing with or without pomalidomide (CCK-8). Type of series: cell-based. The settings on record: 10 µM pomalidomide, Figure 2.
Series [3] relates to BJ cells. The experiment in a line: Senescent cell killing activity test, BJ cell model (CCK-8). The series is classed as cell-based, human. As to conditions: Figures 3M-3O. Here is the method: To avoid replication of the induced senescent cells, low-passage proliferating HEF cells (<10 passages), MRC5 cells (<6 passages), and BJ cells (<10 passages) were used as normal controls. For chemical drug induced senescence, HEF cells were treated with 10 µM etoposide (Selleck, S1225) for 36-48 hours, MRC5 cells were treated with 5 µM bleomycin (Selleck, S1225) for 72 hours, and BJ cells were treated with 10 µg/mL bleomycin for 72 hours. Three days after the treatment, the cells were subcultured in fresh culture medium at a 1:3 ratio for 72 hours before further analysis and use.
Non-senescent and induced-senescent HEF cells, non-senescent and induced-senescent MRC5 cells, and non-senescent and induced-senescent BJ cells were respectively digested with trypsin, and centrifuged at 1000 rpm for 5 minutes. Then, the supernatant was removed, and the cells were resuspended in fresh DMEM culture medium containing 10% fetal bovine serum for counting. The cell density was adjusted so that the non-senescent cell density was 4000 cells/100 µL and the senescent cell density was 7000 cells/100 µL. 100 µL of the cell suspension was added to each well of a 96-well transparent cell culture plate. It was noted that the edge wells of the 96-well plate were not used as testing wells, and 300 µL of PBS alone was added to these wells to reduce evaporation of the culture medium. The 96-well plates with the well-plated cells were placed back in a 37°C incubator for overnight culture until the cells adhered. On the next day, the small molecule compounds to be tested were prepared and added after the cells had adhered.
A series of small molecule concentration gradients (0.01, 0.03, 0.1, 0.3, 1, 3, 10, and 25 µM) were pre-set, and a series of 2× drug dilutions for the above concentrations were prepared in DMEM culture medium containing 10% fetal bovine serum. 100 µL of the above DMEM culture medium containing the gradient concentrations of the drug was added to each well of the 96-well plate that had been well-plated with cells, so that the final drug concentration in each well was the pre-set series of concentrations. Three replicate wells were used for each test drug concentration. The 96-well plates were placed back in a 37°C incubator, and cell viability was measured after three days.
Three days after adding the drug, the plates were taken out, and the supernatant was discarded. 100 µL of pre-prepared CCK-8 working solution was added to each well. The CCK-8 working solution was obtained through diluting a CCK-8 stock solution (C0041, Beyotime) with a serum-free DMEM culture medium by 10-fold volumn. The 96-well plates containing the CCK-8 working solution were placed back in the 37°C incubator and incubated for 0.5-2 hours. The plates were then taken out, and the absorbance value (OD value) of each well was measured at a wavelength of 450 nm. The cell viability in each experimental group was calculated according to the following formula: Relative cell viability (%) = (Blank control group - Experimental group) / Blank control group × 100%.

As for `O=C1CCC(N2C(=O)c3cccc(NCCN4CCC(CN5CCN(CC#Cc6ccc(OCCCc7ccc(N8CCc9cccc(C(=O)Nc%10nc%11ccccc%11s%10)c9C8)nc7C(=O)O)c(F)c6)CC5)CC4)c3C2=O)C(=O)N1` (centres unmarked) [APQ2], the platelet number entry in series [1] (intraperitoneal, three tested dose groups 0.1, 0.5, and 2.5 mg/kg, Figure 5A) is on record as “no significant decrease in platelet number”. For the same molecule, the “cell killing activity after addition of pomalidomide (+poma) compared to without (-poma)” value in series [2] is listed as “significantly reduced cell killing activity”.

As for `O=C1CCN(c2ccc(N3CCC(CN4CCN(CC#Cc5ccc(OCCCc6ccc(N7CCc8cccc(C(=O)Nc9nc%10ccccc%10s9)c8C7)nc6C(=O)O)c(F)c5)CC4)CC3)cc2)C(=O)N1` [APQ10], the “killing effects for senescent cells” value in series [3] (bleomycin-induced senescent skin-derived BJ cell model) was “highly selective and potent killing effects for senescent cells”. The “killing effect for the normal early-passage BJ cells” value in series [3] (normal BJ cells) was “without significant killing effect for the normal early-passage BJ cells”. The “platelet number in peripheral blood, in words” value in series [1] (intraperitoneal, 5 mg/kg, Figure 5B) is given as “slightly decrease in platelet number”. For the same molecule, the “platelet number at the highest dose” value in series [1] (intraperitoneal, 20 mg/kg, decrease lower than A-1331852 at 2 mg/kg, Figure 5C) is “significant decrease in the platelet number”. Further, the “platelet toxicity compared to A-1331852 at equivalent doses” value in series [1] (intraperitoneal, 2, 5, and 20 mg/kg, Figure 5C) is listed as “lower platelet toxicity”. In series [2], the “cell killing activity after addition of pomalidomide (+poma) compared to without (-poma)” value was “significantly reduced cell killing activity”.

Values taken from EP4759810A1, “PROTAC TARGETING BCL-XL PROTEIN AND USE THEREOF” (BEIJING SUNCELL BIO-MEDICAL CO., LTD., priority 2023, dated 2025).
